Reference: patent US8952034B2, “Fused heterocyclic compounds as ion channel modulators” (Gilead Sciences, Inc., priority 2009, dated 2015)

Target: wild-type human cardiac sodium channel, hNav1.5 (Homo sapiens, UniProt Q14524)
Test: Late INa screening assay (automated whole cell patch clamp, PatchXpress)
Assay type: cell-based
Conditions: HEK293 cells expressing hNav1.5, late INa generated with 10 μM Tefluthrin (or 50 nM ATX II); for inhibition at 1 µM: compound at 1 μM, read-out: LateINa_1 uM (percent block of late INa)
How it was run: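 Late sodium current through wild-type human hNav1.5 stably expressed in HEK293 cells (no beta subunits) was recorded by automated whole-cell patch clamp on a PatchXpress 7000A at 24-27° C. Late INa was induced with 10 μM Tefluthrin or 50 nM ATX II. Cells were stepped from −120 mV to −20 mV for 250 ms at 0.1 Hz, and percent block was normalized to current in Na-free extracellular solution.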

wild-type human cardiac sodium channel, hNav1.5, sequence (Q14524 whole entry): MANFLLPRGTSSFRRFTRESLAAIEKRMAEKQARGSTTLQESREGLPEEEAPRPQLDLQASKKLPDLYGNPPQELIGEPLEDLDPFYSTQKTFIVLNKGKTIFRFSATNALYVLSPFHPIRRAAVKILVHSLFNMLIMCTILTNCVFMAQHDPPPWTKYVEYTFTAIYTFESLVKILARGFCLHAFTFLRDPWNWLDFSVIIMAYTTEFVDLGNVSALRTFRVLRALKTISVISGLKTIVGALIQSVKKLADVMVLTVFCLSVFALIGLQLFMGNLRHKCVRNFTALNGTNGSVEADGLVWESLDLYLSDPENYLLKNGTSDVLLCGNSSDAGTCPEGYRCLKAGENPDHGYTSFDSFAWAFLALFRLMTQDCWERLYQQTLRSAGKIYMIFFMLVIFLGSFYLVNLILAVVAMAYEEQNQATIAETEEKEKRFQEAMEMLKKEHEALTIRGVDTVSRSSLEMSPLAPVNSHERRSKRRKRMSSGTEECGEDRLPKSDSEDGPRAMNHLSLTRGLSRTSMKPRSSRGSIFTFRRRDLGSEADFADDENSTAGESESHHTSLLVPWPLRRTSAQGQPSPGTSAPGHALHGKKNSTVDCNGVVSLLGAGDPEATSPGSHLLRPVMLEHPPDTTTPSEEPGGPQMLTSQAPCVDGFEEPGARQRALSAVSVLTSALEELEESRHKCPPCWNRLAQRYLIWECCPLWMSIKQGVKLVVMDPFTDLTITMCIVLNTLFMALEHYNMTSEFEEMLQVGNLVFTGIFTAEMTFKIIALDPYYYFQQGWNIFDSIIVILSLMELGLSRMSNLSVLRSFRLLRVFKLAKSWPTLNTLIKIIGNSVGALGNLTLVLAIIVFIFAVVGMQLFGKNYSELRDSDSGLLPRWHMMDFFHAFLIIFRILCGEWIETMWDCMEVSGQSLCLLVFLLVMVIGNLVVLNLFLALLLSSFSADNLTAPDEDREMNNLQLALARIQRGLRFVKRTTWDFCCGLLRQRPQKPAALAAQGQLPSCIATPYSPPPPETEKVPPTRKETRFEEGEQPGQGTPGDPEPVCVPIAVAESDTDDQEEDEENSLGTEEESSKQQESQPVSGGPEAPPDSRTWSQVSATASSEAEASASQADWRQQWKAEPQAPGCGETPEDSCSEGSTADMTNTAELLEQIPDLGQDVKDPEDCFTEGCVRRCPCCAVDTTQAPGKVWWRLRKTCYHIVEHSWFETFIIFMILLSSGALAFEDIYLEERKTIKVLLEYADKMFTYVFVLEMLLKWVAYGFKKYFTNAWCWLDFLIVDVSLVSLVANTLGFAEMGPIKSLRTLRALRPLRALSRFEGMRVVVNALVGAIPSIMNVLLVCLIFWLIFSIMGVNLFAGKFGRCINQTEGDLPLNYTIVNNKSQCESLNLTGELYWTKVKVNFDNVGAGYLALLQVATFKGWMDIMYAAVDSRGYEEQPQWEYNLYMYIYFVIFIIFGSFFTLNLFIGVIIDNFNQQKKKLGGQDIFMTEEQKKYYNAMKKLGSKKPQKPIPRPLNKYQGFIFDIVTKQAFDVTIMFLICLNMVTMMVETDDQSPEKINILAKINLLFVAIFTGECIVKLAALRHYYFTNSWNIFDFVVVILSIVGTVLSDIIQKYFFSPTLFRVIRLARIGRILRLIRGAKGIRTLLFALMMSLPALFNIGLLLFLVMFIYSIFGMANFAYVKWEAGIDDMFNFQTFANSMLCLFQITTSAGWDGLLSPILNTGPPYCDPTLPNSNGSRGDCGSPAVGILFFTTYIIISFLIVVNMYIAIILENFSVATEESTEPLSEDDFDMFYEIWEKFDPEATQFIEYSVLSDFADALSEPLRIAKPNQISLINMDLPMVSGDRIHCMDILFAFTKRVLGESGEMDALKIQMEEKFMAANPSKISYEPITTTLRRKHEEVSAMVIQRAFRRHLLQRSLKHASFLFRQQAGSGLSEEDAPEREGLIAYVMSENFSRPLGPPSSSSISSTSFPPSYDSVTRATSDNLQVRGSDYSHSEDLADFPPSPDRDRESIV

| SMILES | inhibition at 1 µM [%] | inhibition at 10 µM (compound at 10 μM, read-out: LateINa_10 uM (percent block of late INa)) [%] |
| --- | --- | --- |
| FC(F)(F)c1nnc2ccc(-c3ccc4ccccc4c3)cn12 [BHN-106, 6-(naphthalen-2-yl)-3-(trifluoromethyl)[1,2,4]triazolo[4,3-a]pyridine] | 38.2 | – |
| COc1cc(-c2ccc3nnc(C(F)(F)F)n3c2)cc(OC)c1OC [BHN-107, 3-(trifluoromethyl)-6-(3,4,5-trimethoxyphenyl)[1,2,4]triazolo[4,3-a]pyridine] | 16.5 | – |
| FC(F)(F)Oc1ccc(-c2ccc3nnc(C(F)(F)F)n3c2)c2cccnc12 [BHN-108, 8-(trifluoromethoxy)-5-[3-(trifluoromethyl)[1,2,4]triazolo[4,3-a]pyridin-6-yl]quinoline] | 45.7 | 63.1 |
| Fc1cc(-c2ccc3nnc(C(F)(F)F)n3c2)cc(F)c1Oc1ccccc1 [BHN-109, 6-(3,5-difluoro-4-phenoxyphenyl)-3-(trifluoromethyl)[1,2,4]triazolo[4,3-a]pyridine] | 61.8 | – |
| O=[N+]([O-])c1cc(F)ccc1Oc1ccc(-c2ccc3nnc(C(F)(F)F)n3c2)cc1 [BHN-110, 6-[4-(4-fluoro-2-nitrophenoxy)phenyl]-3-(trifluoromethyl)[1,2,4]triazolo[4,3-a]pyridine] | 18.2 | – |
| OCC(F)(F)c1nnc2ccc(-c3ccc(Oc4ccccc4)cc3)cn12 [BHN-111, 2,2-difluoro-2-[6-(4-phenoxyphenyl)[1,2,4]triazolo[4,3-a]pyridin-3-yl]ethanol] | 29 | – |
| Fc1ccccc1Oc1ccc(-c2ccc3nnc(C(F)(F)F)n3c2)cc1 [BHN-112, 6-[4-(2-fluorophenoxy)phenyl]-3-(trifluoromethyl)[1,2,4]triazolo[4,3-a]pyridine] | 32.9 | – |
| FC(F)(F)c1nnc2ccc(-c3ccc(Oc4ccncc4)cc3)cn12 [BHN-113, 6-[4-(pyridin-4-yloxy)phenyl]-3-(trifluoromethyl)[1,2,4]triazolo[4,3-a]pyridine] | 20.1 | – |
| FC(F)(F)c1nnc2ccc(-c3ccc(Nc4ccccc4)cc3)cn12 [BHN-114, N-phenyl-4-[3-(trifluoromethyl)[1,2,4]triazolo[4,3-a]pyridin-6-yl]aniline] | 37.4 | – |
| CC(=O)Nc1cc(OC(F)(F)F)ccc1-c1ccc2nnc(-c3ccc(OC(F)(F)F)cc3)n2c1 [BHN-116, N-[5-(trifluoromethoxy)-2-{3-[4-(trifluoromethoxy)phenyl][1,2,4]triazolo[4,3-a]pyridin-6-yl}phenyl]acetamide] | 16.4 | – |
| N#Cc1nc(C(F)(F)F)n2cc(-c3ccc(OC(F)(F)F)cc3)ccc12 [BHN-117, 6-[4-(trifluoromethoxy)phenyl]-3-(trifluoromethyl)imidazo[1,5-a]pyridine-1-carbonitrile] | 66.3 | – |
| FC(F)(F)Oc1ccc(-c2ccc3nnc(-c4ccc(OC(F)(F)F)cc4)n3n2)cc1 [BHN-118, 3,6-bis[4-(trifluoromethoxy)phenyl][1,2,4]triazolo[4,3-b]pyridazine] | 46.3 | – |
| FC(F)(F)c1nnc2ccc(-c3ccc(Sc4ccccc4)cc3)cn12 [BHN-119, 6-[4-(phenylsulfanyl)phenyl]-3-(trifluoromethyl)[1,2,4]triazolo[4,3-a]pyridine] | 70.5 | – |
| FC(F)(F)c1nnc2ccc(-c3cccc4ccccc34)cn12 [BHN-120, 6-(naphthalen-1-yl)-3-(trifluoromethyl)[1,2,4]triazolo[4,3-a]pyridine] | 20.4 | – |
| FC(F)(F)c1ccc(-c2ccc3nnc(C(F)(F)F)n3c2)nn1 [BHN-121, 3-(trifluoromethyl)-6-[6-(trifluoromethyl)pyridazin-3-yl][1,2,4]triazolo[4,3-a]pyridine] | 21.9 | – |
| FC(F)(F)c1ncc(-c2ccc3nnc(C(F)(F)F)n3c2)cn1 [BHN-122, 3-(trifluoromethyl)-6-[2-(trifluoromethyl)pyrimidin-5-yl][1,2,4]triazolo[4,3-a]pyridine] | 31.8 | – |
| FC(F)(F)c1nnc2ccc(-c3ccc(NC(c4ccccc4)C(F)(F)F)cc3)cn12 (stereo not shown) [BHN-123, 4-[3-(trifluoromethyl)[1,2,4]triazolo[4,3-a]pyridin-6-yl]-N-(2,2,2-trifluoro-1-phenylethyl)aniline] | 23.4 | – |
| FC(F)(F)Oc1ccc(-c2ccc3nnc(C(F)(F)F)n3c2)c(Br)c1 [BHN-124, 6-[2-bromo-4-(trifluoromethoxy)phenyl]-3-(trifluoromethyl)[1,2,4]triazolo[4,3-a]pyridine] | 82 | – |
| OCc1nc(C(F)(F)F)n2cc(-c3ccc(OC(F)(F)F)cc3)ccc12 [BHN-125, {6-[4-(trifluoromethoxy)phenyl]-3-(trifluoromethyl)imidazo[1,5-a]pyridin-1-yl}methanol] | 33.9 | – |
| COc1cc(-c2ccc(OC(F)(F)F)cc2)cn2c(C(F)F)nnc12 [BHN-126, 3-(difluoromethyl)-8-methoxy-6-[4-(trifluoromethoxy)phenyl][1,2,4]triazolo[4,3-a]pyridine] | 26.9 | – |
| FC(F)(F)Oc1ccc(-c2ccc3nnc(COCc4ccccc4)n3c2)cc1 [BHN-127, 3-[(benzyloxy)methyl]-6-[4-(trifluoromethoxy)phenyl][1,2,4]triazolo[4,3-a]pyridine] | 93.2 | – |
| FC(F)(F)Oc1ccc(-c2ccc3nnc(COCC4CC4)n3c2)cc1 [BHN-128, 3-[(cyclopropylmethoxy)methyl]-6-[4-(trifluoromethoxy)phenyl][1,2,4]triazolo[4,3-a]pyridine] | 65.6 | – |
| FC(F)(F)COCc1nnc2ccc(-c3ccc(OC(F)(F)F)cc3)cn12 [BHN-129, 3-[(2,2,2-trifluoroethoxy)methyl]-6-[4-(trifluoromethoxy)phenyl][1,2,4]triazolo[4,3-a]pyridine] | 48.4 | – |
| OCc1nnc2ccc(-c3ccc(OC(F)(F)F)cc3)cn12 [BHN-130, {6-[4-(trifluoromethoxy)phenyl][1,2,4]triazolo[4,3-a]pyridin-3-yl}methanol] | 21.9 | – |
| COc1ncc(-c2cc(OC(F)(F)F)ccc2-c2ccc3nnc(C(F)(F)F)n3c2)cn1 [BHN-131, 6-[2-(2-methoxypyrimidin-5-yl)-4-(trifluoromethoxy)phenyl]-3-(trifluoromethyl)[1,2,4]triazolo[4,3-a]pyridine] | 18.5 | – |
| FC(F)(F)Oc1ccc(-c2ccc3nnc(C(F)(F)F)n3c2)c(-c2cccnc2)c1 [BHN-132, 6-[2-(pyridin-3-yl)-4-(trifluoromethoxy)phenyl]-3-(trifluoromethyl)[1,2,4]triazolo[4,3-a]pyridine] | 29.4 | – |
| Nc1cc(-c2ccc3nnc(C(F)(F)F)n3c2)ccc1OC(F)(F)F [BHN-134, 2-(trifluoromethoxy)-5-[3-(trifluoromethyl)[1,2,4]triazolo[4,3-a]pyridin-6-yl]aniline] | 27.8 | – |
| N#CC1(c2ccc(-c3ccc4nnc(C(F)(F)F)n4c3)cc2)CCCC1 [BHN-135, 1-{4-[3-(trifluoromethyl)[1,2,4]triazolo[4,3-a]pyridin-6-yl]phenyl}cyclopentanecarbonitrile] | 49.2 | – |
| COCC(F)(F)c1nnc2ccc(-c3ccc(Oc4ccccc4)cc3)cn12 [BHN-136, 3-(1,1-difluoro-2-methoxyethyl)-6-(4-phenoxyphenyl)[1,2,4]triazolo[4,3-a]pyridine] | 45 | – |
| COCC(F)(F)c1nnc2ccc(-c3ccc(Oc4ccc(Cl)cc4)cc3)cn12 [BHN-137, 6-[4-(4-chlorophenoxy)phenyl]-3-(1,1-difluoro-2-methoxyethyl)[1,2,4]triazolo[4,3-a]pyridine] | 48.2 | – |
